Data reported in the CheMixHub viscosity set.
“And” between values parts separate entries of the source, which are not always exact repeats. Identical values can stand only once. ± gives the uncertainty stated by the source.

Assay: xn = mol fraction of the nth substance listed

CN[C@@H]1[C@H](O[C@H]2[C@H](O[C@H]3[C@H](O)[C@@H](O)[C@H](NC(=N)N)[C@@H](O)[C@@H]3NC(=N)N)O[C@@H](C)[C@]2(O)C=O)O[C@@H](CO)[C@H](O)[C@H]1O.CN[C@@H]1[C@H](O[C@H]2[C@H](O[C@H]3[C@H](O)[C@@H](O)[C@H](NC(=N)N)[C@@H](O)[C@@H]3NC(=N)N)O[C@@H](C)[C@]2(O)C=O)O[C@@H](CO)[C@H](O)[C@H]1O.O=S(=O)(O)O.O=S(=O)(O)O.O=S(=O)(O)O + O
Details	viscosity
293.15 K, 101.3 kPa, x1 = 0.00018	1.053 ± 0.06 mPa·s
293.15 K, 101.3 kPa, x1 = 0.0003604	1.102 ± 0.061 mPa·s
293.15 K, 101.3 kPa, x1 = 0.00054	1.156 ± 0.061 mPa·s
293.15 K, 101.3 kPa, x1 = 0.0007203	1.207 ± 0.061 mPa·s
293.15 K, 101.3 kPa, x1 = 0.0009005	1.266 ± 0.061 mPa·s
293.15 K, 101.3 kPa, x1 = 0.00108	1.328 ± 0.061 mPa·s
293.15 K, 101.3 kPa, x1 = 0.00126	1.393 ± 0.061 mPa·s
293.15 K, 101.3 kPa, x1 = 0.001439	1.446 ± 0.061 mPa·s
298.15 K, 101 kPa, x1 = 7.6e-05	0.9256 ± 0.019 mPa·s
298.15 K, 101 kPa, x1 = 0.0001	0.9434 ± 0.0064 mPa·s
298.15 K, 101 kPa, x1 = 0.00015	0.9504 ± 0.02 mPa·s
298.15 K, 101 kPa, x1 = 0.000216	0.9744 ± 0.021 mPa·s
298.15 K, 101 kPa, x1 = 0.000286	0.9974 ± 0.021 mPa·s
298.15 K, 101 kPa, x1 = 0.0003	0.9849 ± 0.0066 mPa·s
298.15 K, 101 kPa, x1 = 0.000358	1.02 ± 0.021 mPa·s
298.15 K, 101.3 kPa, x1 = 0.00018	0.939 ± 0.06 mPa·s
298.15 K, 101.3 kPa, x1 = 0.0003604	0.985 ± 0.06 mPa·s
298.15 K, 101.3 kPa, x1 = 0.00054	1.037 ± 0.06 mPa·s
298.15 K, 101.3 kPa, x1 = 0.0007203	1.089 ± 0.061 mPa·s
298.15 K, 101.3 kPa, x1 = 0.0009005	1.147 ± 0.061 mPa·s
298.15 K, 101.3 kPa, x1 = 0.00108	1.192 ± 0.061 mPa·s
298.15 K, 101.3 kPa, x1 = 0.00126	1.249 ± 0.061 mPa·s
298.15 K, 101.3 kPa, x1 = 0.001439	1.296 ± 0.061 mPa·s
298.15 K, 101.33 kPa, x1 = 7e-07	0.8964 ± 0.042 mPa·s
298.15 K, 101.33 kPa, x1 = 9e-07	0.8973 ± 0.042 mPa·s
298.15 K, 101.33 kPa, x1 = 1e-06	0.8981 ± 0.042 mPa·s and 0.899 ± 0.042 mPa·s and 0.8998 ± 0.042 mPa·s
298.15 K, 101.33 kPa, x1 = 1.8e-06	0.9034 ± 0.042 mPa·s
298.15 K, 101.33 kPa, x1 = 2e-06	0.9025 ± 0.042 mPa·s and 0.9043 ± 0.042 mPa·s
298.15 K, 101.33 kPa, x1 = 2.2e-06	0.9051 ± 0.042 mPa·s
303.15 K, 101 kPa, x1 = 7.6e-05	0.8296 ± 0.017 mPa·s
303.15 K, 101 kPa, x1 = 0.0001	0.8493 ± 0.0058 mPa·s
303.15 K, 101 kPa, x1 = 0.00015	0.8528 ± 0.018 mPa·s
303.15 K, 101 kPa, x1 = 0.000216	0.8752 ± 0.018 mPa·s
303.15 K, 101 kPa, x1 = 0.000286	0.8971 ± 0.019 mPa·s
303.15 K, 101 kPa, x1 = 0.0003	0.8904 ± 0.0061 mPa·s
303.15 K, 101 kPa, x1 = 0.000358	0.919 ± 0.019 mPa·s
303.15 K, 101.3 kPa, x1 = 0.00018	0.844 ± 0.06 mPa·s
303.15 K, 101.3 kPa, x1 = 0.0003604	0.887 ± 0.06 mPa·s
303.15 K, 101.3 kPa, x1 = 0.00054	0.936 ± 0.06 mPa·s
303.15 K, 101.3 kPa, x1 = 0.0007203	0.981 ± 0.06 mPa·s
303.15 K, 101.3 kPa, x1 = 0.0009005	1.035 ± 0.06 mPa·s
303.15 K, 101.3 kPa, x1 = 0.00108	1.079 ± 0.061 mPa·s
303.15 K, 101.3 kPa, x1 = 0.00126	1.126 ± 0.061 mPa·s
303.15 K, 101.3 kPa, x1 = 0.001439	1.171 ± 0.061 mPa·s
303.15 K, 101.33 kPa, x1 = 5e-07	0.8016 ± 0.041 mPa·s
303.15 K, 101.33 kPa, x1 = 7e-07	0.8024 ± 0.041 mPa·s
303.15 K, 101.33 kPa, x1 = 9e-07	0.8032 ± 0.041 mPa·s
303.15 K, 101.33 kPa, x1 = 1e-06	0.804 ± 0.041 mPa·s and 0.8048 ± 0.041 mPa·s and 0.8056 ± 0.041 mPa·s
303.15 K, 101.33 kPa, x1 = 1.8e-06	0.8089 ± 0.041 mPa·s
303.15 K, 101.33 kPa, x1 = 2e-06	0.8064 ± 0.041 mPa·s and 0.8097 ± 0.041 mPa·s
303.15 K, 101.33 kPa, x1 = 2.2e-06	0.8105 ± 0.041 mPa·s
305.15 K, 101 kPa, x1 = 0.0002	0.826 ± 0.0053 mPa·s
305.15 K, 101 kPa, x1 = 0.0004	0.8609 ± 0.0055 mPa·s
308.15 K, 101 kPa, x1 = 7.6e-05	0.7487 ± 0.016 mPa·s
308.15 K, 101 kPa, x1 = 0.0001	0.7667 ± 0.0053 mPa·s
308.15 K, 101 kPa, x1 = 0.00015	0.771 ± 0.016 mPa·s
308.15 K, 101 kPa, x1 = 0.000216	0.7923 ± 0.017 mPa·s
308.15 K, 101 kPa, x1 = 0.000286	0.8134 ± 0.017 mPa·s
308.15 K, 101 kPa, x1 = 0.0003	0.8077 ± 0.0056 mPa·s
308.15 K, 101 kPa, x1 = 0.000358	0.834 ± 0.018 mPa·s
308.15 K, 101.3 kPa, x1 = 0.00018	0.764 ± 0.06 mPa·s
308.15 K, 101.3 kPa, x1 = 0.0003604	0.806 ± 0.06 mPa·s
308.15 K, 101.3 kPa, x1 = 0.00054	0.848 ± 0.06 mPa·s
308.15 K, 101.3 kPa, x1 = 0.0007203	0.893 ± 0.06 mPa·s
308.15 K, 101.3 kPa, x1 = 0.0009005	0.943 ± 0.06 mPa·s
308.15 K, 101.3 kPa, x1 = 0.00108	0.984 ± 0.06 mPa·s
308.15 K, 101.3 kPa, x1 = 0.00126	1.026 ± 0.06 mPa·s
308.15 K, 101.3 kPa, x1 = 0.001439	1.072 ± 0.061 mPa·s
310.15 K, 101 kPa, x1 = 0.0002	0.7448 ± 0.0049 mPa·s
310.15 K, 101 kPa, x1 = 0.0004	0.7702 ± 0.005 mPa·s
313.15 K, 101 kPa, x1 = 7.6e-05	0.6801 ± 0.014 mPa·s
313.15 K, 101 kPa, x1 = 0.0001	0.6932 ± 0.0049 mPa·s
313.15 K, 101 kPa, x1 = 0.00015	0.7016 ± 0.015 mPa·s
313.15 K, 101 kPa, x1 = 0.000216	0.722 ± 0.015 mPa·s
313.15 K, 101 kPa, x1 = 0.000286	0.7425 ± 0.016 mPa·s
313.15 K, 101 kPa, x1 = 0.0003	0.7345 ± 0.0052 mPa·s
313.15 K, 101 kPa, x1 = 0.000358	0.7623 ± 0.016 mPa·s
313.15 K, 101.3 kPa, x1 = 0.00018	0.698 ± 0.06 mPa·s
313.15 K, 101.3 kPa, x1 = 0.0003604	0.739 ± 0.06 mPa·s
313.15 K, 101.3 kPa, x1 = 0.00054	0.784 ± 0.06 mPa·s
313.15 K, 101.3 kPa, x1 = 0.0007203	0.822 ± 0.06 mPa·s
313.15 K, 101.3 kPa, x1 = 0.0009005	0.866 ± 0.06 mPa·s
313.15 K, 101.3 kPa, x1 = 0.00108	0.904 ± 0.06 mPa·s
313.15 K, 101.3 kPa, x1 = 0.00126	0.946 ± 0.06 mPa·s
313.15 K, 101.3 kPa, x1 = 0.001439	0.989 ± 0.06 mPa·s
315.15 K, 101 kPa, x1 = 0.0002	0.6863 ± 0.0046 mPa·s
315.15 K, 101 kPa, x1 = 0.0004	0.7114 ± 0.0047 mPa·s
318.15 K, 101 kPa, x1 = 7.6e-05	0.6228 ± 0.013 mPa·s
318.15 K, 101 kPa, x1 = 0.0001	0.6275 ± 0.0046 mPa·s
318.15 K, 101 kPa, x1 = 0.00015	0.6432 ± 0.014 mPa·s
318.15 K, 101 kPa, x1 = 0.000216	0.6631 ± 0.014 mPa·s
318.15 K, 101 kPa, x1 = 0.000286	0.683 ± 0.014 mPa·s
318.15 K, 101 kPa, x1 = 0.0003	0.6686 ± 0.0048 mPa·s
318.15 K, 101 kPa, x1 = 0.000358	0.7027 ± 0.015 mPa·s
